Assay results taken from publication PMC10698726 (Molecular Pharmaceutics, 2023).
Like-named read-outs stand apart in the source and are kept apart here.

Columns and labels:
OCT1 [1] = target: T1, OCT1 (Homo sapiens, UniProt O15245); experiment: Inhibition of model substrate uptake in OCT1-overexpressing HEK293 cells; assay type: cell-based; parameters: expressed in transfected cells; host or cells: HEK293; conditions: OCT1, 20 μM inhibitor, 5 min; for inhibition at 5 min, 20 μM: human, OCT1-overexpressing HEK293 cells
T1 sequence (O15245 1-554): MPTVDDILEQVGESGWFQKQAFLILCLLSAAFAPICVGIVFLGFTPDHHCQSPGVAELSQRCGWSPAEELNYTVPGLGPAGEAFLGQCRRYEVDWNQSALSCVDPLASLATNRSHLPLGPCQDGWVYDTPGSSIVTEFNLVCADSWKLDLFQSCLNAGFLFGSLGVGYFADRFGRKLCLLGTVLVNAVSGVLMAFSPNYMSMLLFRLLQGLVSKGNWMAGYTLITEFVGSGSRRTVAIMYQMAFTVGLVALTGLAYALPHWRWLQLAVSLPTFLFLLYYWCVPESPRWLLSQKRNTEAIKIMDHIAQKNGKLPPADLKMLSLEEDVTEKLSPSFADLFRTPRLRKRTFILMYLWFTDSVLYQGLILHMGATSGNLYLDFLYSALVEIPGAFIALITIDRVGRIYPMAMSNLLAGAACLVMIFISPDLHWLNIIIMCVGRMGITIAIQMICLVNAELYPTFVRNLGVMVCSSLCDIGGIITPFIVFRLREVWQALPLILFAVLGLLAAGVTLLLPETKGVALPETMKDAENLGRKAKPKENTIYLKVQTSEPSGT
Experimental: (§1) Koepsell and Gorbulev (University of Würzburg, Germany).
Fluorescence quantification was performed in technical duplicates.

[2] = oral administration, cited from earlier work
OCT2 [3] = target: T2, OCT2 (Homo sapiens, UniProt O15244); experiment: Inhibition of model substrate uptake in OCT2-overexpressing HEK293 cells; conditions: for IC50: IC50 [μM], OCT2, Table 1; for inhibition at 5 min, 20 μM / ASP+ inhibition [%] / N-Ethyllidocaine inhibition [%] / (S,S)-Ethambutol inhibition [%]: OCT2, 20 μM inhibitor, 5 min
T2 sequence (O15244 1-555): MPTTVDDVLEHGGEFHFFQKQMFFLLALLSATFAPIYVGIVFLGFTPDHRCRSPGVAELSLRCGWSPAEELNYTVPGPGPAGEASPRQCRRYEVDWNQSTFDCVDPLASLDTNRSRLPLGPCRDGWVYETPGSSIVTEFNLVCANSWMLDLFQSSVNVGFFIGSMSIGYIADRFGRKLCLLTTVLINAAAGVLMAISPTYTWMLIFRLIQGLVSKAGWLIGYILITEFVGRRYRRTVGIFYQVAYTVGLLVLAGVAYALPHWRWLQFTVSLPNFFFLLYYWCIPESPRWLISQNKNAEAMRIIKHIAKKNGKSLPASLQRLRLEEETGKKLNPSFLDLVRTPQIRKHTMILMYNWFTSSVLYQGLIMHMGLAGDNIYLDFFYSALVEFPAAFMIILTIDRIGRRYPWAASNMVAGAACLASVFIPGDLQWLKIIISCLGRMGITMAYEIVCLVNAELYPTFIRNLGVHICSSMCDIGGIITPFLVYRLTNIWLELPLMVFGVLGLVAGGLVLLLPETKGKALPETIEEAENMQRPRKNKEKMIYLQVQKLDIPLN

OCT3 [4] = target: T3, OCT3 (Homo sapiens, UniProt O75751); experiment: Inhibition of model substrate uptake in OCT3-overexpressing HEK293 cells; assay type: cell-based; conditions: 20 μM inhibitor, 5 min
T3 construct: expressed in transfected cells; host or cells: HEK293
T3 sequence (O75751 1-556): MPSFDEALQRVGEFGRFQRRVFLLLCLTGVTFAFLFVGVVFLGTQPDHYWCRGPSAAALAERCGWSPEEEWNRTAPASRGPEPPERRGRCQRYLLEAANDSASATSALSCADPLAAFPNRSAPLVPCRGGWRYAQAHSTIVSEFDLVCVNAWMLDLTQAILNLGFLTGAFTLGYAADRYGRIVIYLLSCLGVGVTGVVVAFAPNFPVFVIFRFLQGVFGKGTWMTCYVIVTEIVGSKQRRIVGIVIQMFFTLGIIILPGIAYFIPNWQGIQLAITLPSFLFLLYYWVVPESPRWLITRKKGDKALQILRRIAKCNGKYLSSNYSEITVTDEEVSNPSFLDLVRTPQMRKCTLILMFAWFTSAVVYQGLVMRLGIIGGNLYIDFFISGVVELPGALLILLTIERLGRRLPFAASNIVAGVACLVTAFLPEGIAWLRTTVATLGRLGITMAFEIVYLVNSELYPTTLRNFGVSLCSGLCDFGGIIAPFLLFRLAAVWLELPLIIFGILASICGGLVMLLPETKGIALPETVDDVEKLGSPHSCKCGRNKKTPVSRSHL
Summary of the method: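 Transporter-overexpressing HEK293 cells were incubated 5 min in HBSS+ with 2 μM model substrate, with or without 20 μM inhibitor or increasing inhibitor concentrations. Uptake was read as ASP^+ fluorescence or by LC–MS/MS, with empty-vector uptake subtracted. IC50 came from a Hill fit of activity versus log concentration.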

OCT3 [5] = target: T3, OCT3; experiment: Concentration-dependent uptake of model substrates, OCT3-overexpressing HEK293 cells; assay type: in vitro ADME; conditions: this study; for Clint ± SEM: vmax over Km
Experimental: as §1
(§2) Prior to inhibition studies, the used model substrates were validated in concentration-dependent uptake experiments if no literature data were available (Table S2 and Figures S2 and S3). Thereby, we ensured that the model substrate concentration used in the subsequent inhibition experiments was sufficiently below the Km value of its uptake kinetics. […] On the day of the experiment, the cells were washed once with prewarmed to 37 °C HBSS (Thermo Fisher Scientific, Darmstadt, Germany) supplemented with 10 mM HEPES and pH adjusted to 7.4 (Sigma-Aldrich)—hereafter termed HBSS+. For concentration-dependent experiments, the cells were incubated with increasing substrate concentrations for 2 min. Uptake was terminated by adding ice-cold HBSS+. Afterward, the cells were washed twice with ice-cold HBSS+, and cell lysis was done with 80% (v/v) acetonitrile (LGC Standards, Wesel, Germany) to which an internal standard for eventual LC–MS/MS analysis had been added. Intracellularly accumulated substrates were then quantified by LC–MS/MS analysis, and calibration was performed with known concentrations of the respective substances. All uptake data were normalized to the number of seeded cells by measuring the total protein content in radioimmunoprecipitation assay buffer-lysed cells in a bicinchoninic acid assay.[29]

OCT1 [6] = target: T1, OCT1; experiment: Concentration-dependent uptake of model substrates, OCT1-overexpressing HEK293 cells; assay type: in vitro ADME; parameters: expressed in transfected cells; host or cells: HEK293; conditions: this study; for Clint ± SEM: vmax over Km
Experimental: as §1, §2

OCT2 [7] = target: T2, OCT2; experiment: Concentration-dependent uptake of model substrates, OCT2-overexpressing HEK293 cells; assay type: in vitro ADME; parameters: expressed in transfected cells; host or cells: HEK293; conditions: this study; for Clint ± SEM: vmax over Km
Experimental: as §1, §2

OCT1 [8] = target: T1, OCT1; conditions: cited from earlier work
not read = substrate: CCC(CO)NCCNC(CC)CO; experiment: not read; conditions: other: OCT3, this study
[9] = pH 7.4, probe (S,S)-ethambutol (2 μM), (S,S)-Ethambutol inhibition [%], 2 μM (S,S)-ethambutol
[10] = pH 7.4, probe ASP+ (2 μM), 2 μM ASP+, mean of three experiments, read-out: ASP+ inhibition [%]
[11] = pH 7.4, probe sumatriptan (2 μM), 2 μM sumatriptan, read-out: Sumatriptan inhibition [%]
[12] = HEK293, 5 min, read-out: (S)-Zolmitriptan inhibition [%], OCT3, 2 μM (S)-zolmitriptan
[13] = HEK293, 5 min, read-out: (S,S)-Ethambutol inhibition [%], OCT3, 2 μM (S,S)-ethambutol
[14] = HEK293, OCT3, 2 μM ASP+, read-out: ASP+ inhibition [%]
[15] = 2 μM ASP+, mean of three experiments
[16] = amisulpride, single dose (50 mg)
[17] = ref 2 (Matthaei et al., 2016, supplement)

CN(C)CCC[C@]1(c2ccc(F)cc2)OCc2cc(C#N)ccc21 [(R)-Citalopram]
inhibition at 5 min, 20 μM (OCT1 [1]; [9]): 72.8% | inhibition at 5 min, 20 μM (OCT1 [1]; [10]): 28.9% | inhibition at 5 min, 20 μM (OCT1 [1]; [11]): 78% | Imax ([2]; citalopram, multiple doses (40 mg, once daily for 21 d)): 0.228 µM | IC50 (OCT2 [3]): 17.8 µM | inhibition at 5 min, 20 μM (OCT2 [3]; human, OCT2-overexpressing HEK293 cells, pH 7.4, probe (S,S)-ethambutol (2 μM), (S,S)-Ethambutol inhibition [%], 2 μM (S,S)-ethambutol): 1.4% | inhibition at 5 min, 20 μM (OCT2 [3]; human, OCT2-overexpressing HEK293 cells, pH 7.4, probe ASP+ (2 μM), ASP+ inhibition [%], 2 μM ASP+): 52.1% | inhibition at 5 min, 20 μM (OCT2 [3]; human, OCT2-overexpressing HEK293 cells, pH 7.4, probe N-ethyllidocaine (2 μM), N-Ethyllidocaine inhibition [%], 2 μM N-ethyllidocaine): 28.4% | inhibition at 20 µM (OCT3 [4]; [12]): 11.8% | inhibition at 20 µM (OCT3 [4]; [13]): 17.2% | inhibition at 20 µM (OCT3 [4]; [14]): 4.5%

CCC(CO)NCCNC(CC)CO [(S,S)-Ethambutol]
ASP+ inhibition [%] (OCT1 [1]; [15]): 5.5% | Sumatriptan inhibition [%] (OCT1 [1]; 2 μM sumatriptan): 17.8% | Clint ± SEM (OCT3 [5]): 16.9 | Clint ± SEM (OCT1 [6]): 14.1 | ASP+ inhibition [%] (OCT2 [3]; 2 μM ASP+): 38.8% | N-Ethyllidocaine inhibition [%] (OCT2 [3]; 2 μM N-ethyllidocaine): 10.0% | (S)-Zolmitriptan inhibition [%] (OCT3 [4]; OCT3, 2 μM (S)-zolmitriptan): -1.3% | ASP+ inhibition [%] (OCT3 [4]; OCT3, 2 μM ASP+): 3.7% | Clint ± SEM (OCT2 [7]): 36.6

CCN1CCC[C@@H]1CNC(=O)c1cc(S(=O)(=O)CC)c(N)cc1OC [(R)-Amisulpride]
inhibition at 5 min, 20 μM (OCT1 [1]; [9]): 57.7% | inhibition at 5 min, 20 μM (OCT1 [1]; [10]): 25.2% | inhibition at 5 min, 20 μM (OCT1 [1]; [11]): 29.3% | Imax [2, 16]: 0.158 µM | IC50 (OCT2 [3]): 9.4 µM | (S,S)-Ethambutol inhibition [%] (OCT2 [3]; 2 μM (S,S)-ethambutol): -5.7% | ASP+ inhibition [%] (OCT2 [3]; 2 μM ASP+): 65.9% | N-Ethyllidocaine inhibition [%] (OCT2 [3]; 2 μM N-ethyllidocaine): 11.3% | inhibition at 20 µM (OCT3 [4]; [12]): 56% | inhibition at 20 µM (OCT3 [4]; [13]): 81.3% | inhibition at 20 µM (OCT3 [4]; [14]): 37.9%

CC(Cc1ccc(O)cc1)NCC(O)c1cc(O)cc(O)c1 (racemic) [rac Fenoterol, Fenoterol]
Clint ± SEM (OCT1 [8]; ref 1 (Tzvetkov et al., 2018, supplement)): 33.0

CN(C)c1ccc(C=Cc2cc[n+](C)cc2)cc1 [ASP+, 4-(4-(dimethylamino)styryl)-N-methylpyridinium]
vmax ± SEM [pmol × mg Protein−1 × min−1] (OCT3 [5]): 3381 pmol × mg Protein−1 × min−1 | Km (OCT3 [5]; read-out: Km ± SEM): 16.5 µM | Clint ± SEM (OCT3 [5]): 205 | Km (OCT1 [6]; 2 min uptake, read-out: Km ± SEM): 11.7 µM | vmax ± SEM [pmol × mg Protein−1 × min−1] (OCT1 [6]): 2678 pmol × mg Protein−1 × min−1 | Clint ± SEM (OCT1 [6]): 230 | vmax ± SEM [pmol × mg Protein−1 × min−1] (OCT2 [7]): 1812 pmol × mg Protein−1 × min−1 | Km (OCT2 [7]; read-out: Km ± SEM): 29.6 µM | Clint ± SEM (OCT2 [7]): 61.3

CCN1CCC[C@H]1CNC(=O)c1cc(S(=O)(=O)CC)c(N)cc1OC [(S)-Amisulpride]
(S,S)-Ethambutol inhibition [%] (OCT1 [1]; 2 μM (S,S)-ethambutol): 51.7% | ASP+ inhibition [%] (OCT1 [1]; [15]): 23.5% | Sumatriptan inhibition [%] (OCT1 [1]; 2 μM sumatriptan): 15.2% | Imax [2, 16]: 0.182 µM | IC50 (OCT2 [3]): 29.8 µM | (S,S)-Ethambutol inhibition [%] (OCT2 [3]; 2 μM (S,S)-ethambutol): -13.2% | ASP+ inhibition [%] (OCT2 [3]; 2 μM ASP+): 38.0% | N-Ethyllidocaine inhibition [%] (OCT2 [3]; 2 μM N-ethyllidocaine): 1.9% | selectivity ratio at 5 min (OCT2 [3]; human, OCT2-overexpressing HEK293 cells, pH 7.4): 3.2 | (S)-Zolmitriptan inhibition [%] (OCT3 [4]; OCT3, 2 μM (S)-zolmitriptan): 46.0% | (S,S)-Ethambutol inhibition [%] (OCT3 [4]; OCT3, 2 μM (S,S)-ethambutol): 73.1% | ASP+ inhibition [%] (OCT3 [4]; OCT3, 2 μM ASP+): 33.7%

CNS(=O)(=O)Cc1ccc2[nH]cc(CCN(C)C)c2c1 [Sumatriptan]
Km (OCT1 [8]; read-out: Km ± SEM, ref 2 (Matthaei et al., 2016, supplement)): 55.4 µM | Clint ± SEM (OCT1 [8]; [17]): 17.6 | vmax ± SEM [pmol × mg Protein−1 × min−1] (OCT1 [8]; [17]): 978 pmol × mg Protein−1 × min−1

B1: OCT3 (Homo sapiens) (protein)
chain: MPSFDEALQRVGEFGRFQRRVFLLLCLTGVTFAFLFVGVVFLGTQPDHYWCRGPSAAALAERCGWSPEEEWNRTAPASRGPEPPERRGRCQRYLLEAANDSASATSALSCADPLAAFPNRSAPLVPCRGGWRYAQAHSTIVSEFDLVCVNAWMLDLTQAILNLGFLTGAFTLGYAADRYGRIVIYLLSCLGVGVTGVVVAFAPNFPVFVIFRFLQGVFGKGTWMTCYVIVTEIVGSKQRRIVGIVIQMFFTLGIIILPGIAYFIPNWQGIQLAITLPSFLFLLYYWVVPESPRWLITRKKGDKALQILRRIAKCNGKYLSSNYSEITVTDEEVSNPSFLDLVRTPQMRKCTLILMFAWFTSAVVYQGLVMRLGIIGGNLYIDFFISGVVELPGALLILLTIERLGRRLPFAASNIVAGVACLVTAFLPEGIAWLRTTVATLGRLGITMAFEIVYLVNSELYPTTLRNFGVSLCSGLCDFGGIIAPFLLFRLAAVWLELPLIIFGILASICGGLVMLLPETKGIALPETVDDVEKLGSPHSCKCGRNKKTPVSRSHL
Km (not read): 146 µM | Vmax (not read): 0.00246 µmol/min/mg
